According to patent US20070004689A1, “Antiangiogenic agents” (priority 2004, published 2007):
Read-outs that look alike come from different tables or passages of the source.

What was measured:
[1] = test system: PC3 a human prostate carcinoma; assay: Proliferation assay, PC3; format: cell-based
Text: (§1) Cell Culture: Human umbilical vein endothelial cells (HUVEC) were obtained from Clonetics (San Diego, Calif.), MCF7 cells were the kind gift of Dr. Dorraya El Ashry (University of Michigan), MDA-MB-231 a human breast carcinoma, PC3 a human prostate carcinoma, and U87-MG a human glioma, cell lines were obtained from ATCC. HUVEC cultures were maintained for up to 5 passages in EGM containing bovine brain extract (Clonetics) and 1× antibiotic-antimycotic (BioWhittaker, Walkersville, Md.). MDA-MB-231, PC3, U87-MG and MCF-7 cells were maintained in DMEM/F12 (1:1) containing 10% (v/v) fetal bovine serum (Hyclone Laboratories, Logan, Utah) and 1× antibiotic-antimycotic. MCF7 cells were used between passage 60 and passage 100.
(§2) Proliferation Assays: Proliferation was measured by cell counting using a Coulter Zl cell counter (Coulter Corporation, Hialeah, Fla.) or by evaluation of DNA synthesis. Each condition was done in triplicate and experiments were repeated at least twice. To determine estrogenicity of the analogs, MCF7 estrogen-dependent proliferation assays were performed. The cells were seeded in complete media at 10,000 cells/well in a 24 well plate after allowing the cells to adhere overnight and the seeding density was determined by cell counts. Cells were washed with PBS (37° C.) and starved by placing them in IMEM-phenol red free media containing 2% charcoal-dextran fetal bovine-stripped serum (Valley Biomedical, Winchester, Va.) and 1× antibiotic-antimycotic. After 3 days of starvation, cells were treated with or without increasing concentrations of compounds, replacing the media every 2-3 days and counted after 7 days of treatment. In order to ensure that only the added test compounds stimulated growth, experiments were performed only with cell cultures that duplicated less than once during the starvation period. Values are expressed as MCF7 stimulation index (SI) relative to 2ME2 (defined as 1.00). A value less than 1.00 indicates reduced estrogenicity. Estradiol is used as a positive control.
(§3) To determine anti-tumor and anti-angiogenic activities of the analogs, proliferation assays were performed by evaluating detection of DNA synthesis by use of the 5-bromo-2′-deoxyuridine (BrdU) cell proliferation colorimetric ELISA kit from Roche (Indianapolis, Ind.) according to the manufacturer's instructions. For BrdU assays, the cells were seeded at 1,000 cells/well (MDA-MB-231, anti-tumor activity) or 3,000 cells/well (HUVEC, anti-angiogenic activity) in a 96 well plate, allowed to attach overnight and then exposed to the compound for 48 h. IC50 value is the concentration at which cell proliferation is inhibited by 50%.
(§4) Antiproliferative activity of the NCEs were assessed in tumor cell lines (MDA-MB-231 a breast carcinoma, PC3 a prostate carcinoma and U87-MG a glioma) and endothelial cells (HUVEC).

[2] = test system: MDA-MB-231 a human breast carcinoma; assay: BrdU proliferation assay, MDA-MB-231 (anti-tumor activity); format: cell-based
Text: as §1, §2, §3, §4

[3] = test system: MCF7 cells; assay: MCF7 estrogen-dependent proliferation assay (estrogenicity); format: cell-based, human; details: stimulation index, 2ME2 defined as 1.00; less than 1.00 = reduced estrogenicity; 7 days of treatment
Text: as §1
as §2, with “[…].” for “Values are expressed as MCF7 stimulation index (SI) relative to 2ME2 (defined as 1.00). A value less than 1.00 indicates reduced estrogenicity.”

[4] = test system: Human umbilical vein endothelial cells (HUVEC); assay: BrdU proliferation assay, HUVEC (anti-angiogenic activity); format: cell-based
Text: as §1, §2, §3, §4

[5] = test system: U87-MG a human glioma; assay: Proliferation assay, U87-MG; format: cell-based
Text: as §1, §2, §3, §4

[6] = test system: human hepatocyte suspensions; assay: Hepatocyte incubations, human; format: in vitro ADME; details: human hepatocytes, NR = no reaction
Procedure: (§5) Hepatocyte Incubations: An in vitro measure of metabolism using cells from rat and human liver. Rat and human hepatocyte suspensions (10^6 cells per mL of serum-free (H)CL15 culture medium) were incubated with 2 concentrations (1 and 5 μM) of each of the compounds. Stock solutions were prepared in DMSO, and were further diluted in culture medium to the final test concentrations. 7-Ethoxycoumarin (7-EC) were included as a positive control substrate for P450. A 0.1 M 7-EC stock solution was prepared in DMSO, and the final assay concentration was 100 μM. The reactions were initiated by the addition of the substrates, incubated at 37° C., and terminated after 0, 60 and 120 minutes by addition of acetonitrile. The positive 7-EC control reactions were stopped with perchloric acid or ZnSO4 and BaOH after 60-minutes of incubation. The reaction mixture was centrifuged to remove the cell debris, and the supernatant was used for subsequent analysis by HPLC/LC-MS. If necessary, the supernatants were flash frozen in liquid N2 and stored at −70° C. until further analysis. HPLC was used to analyze product formation from 7-EC. Analyses to determine the concentration of the test compounds were carried out using reverse phase HPLC with tandem mass spectrometric detection (LC-MS/MS). Samples were analyzed to measure the disappearance of parent compound over time. The rate of metabolism was estimated by fitting a curve to the data for each concentration against time using GraphPad Prism Version 3.02 software.

[7] = test system: Rat hepatocyte suspensions; assay: Hepatocyte incubations, rat; format: in vitro ADME; details: rat hepatocytes, NR = no reaction
Procedure: as §5

[8] = Rat pharmacokinetics after oral delivery of 10 mg/kg, cyclodextrin formulation; format: in vivo; details: oral 10 mg/kg, female Sprague Dawley rats
Procedure: Pharmokinetics of the NCEs were assessed by LC/MS after oral delivery of 10 mg/kg to female Sprague Dawley rats using a cyclodextrin formulation.

[9] = Example 2, Table VII, read-out: IC50 value (μM) PC3
[10] = Example 2, Table VII, read-out: IC50 value (μM) MDA-MB-231
[11] = Example 2, Table VII, read-out: IC50 value (μM) HUVEC
[12] = Example 2, Table VII, read-out: IC50 value (μM) U87-MG

Compound	IC50 [1, 9] [µM]	IC50 [2, 10] [µM]	IC50 [4, 11] [µM]	IC50 [5, 12] [µM]	AUCall [8] [ng·h/mL]	Cmax [8] [ng/mL]	Tmax [8] [min]	T½ [8] [min]	also measured
COc1cc2c(cc1O)CC[C@@H]1[C@@H]2CC[C@]2(C)[C@@H](O)CC[C@@H]12 [Compound 1, 2-Methoxyestradiol, reference compound]	–	–	–	–	–	–	–	–	IC50 ([1]; Homo sapiens, proliferation, read-out: PC3 (IC50 μM)): 1.08 ± 0.5 µM; IC50 ([2]; Homo sapiens, MDA-MB-231, BrdU DNA synthesis, 48 h exposure, read-out: MDA-MB-231 (IC50 μM)): 0.69 ± 0.14 µM; MCF7 SI Relative to 2ME2 [3]: 1.00; IC50 ([4]; Homo sapiens, HUVEC, BrdU DNA synthesis, 48 h exposure, read-out: HUVEC (IC50 μM)): 0.68 ± 0.15 µM; IC50 ([5]; Homo sapiens, U-87 MG, proliferation, read-out: U87-MG (IC50 μM)): 1.48 ± 0.62 µM; Hepatocyte Human 60/120′ (1 uM): 60′ ([6]; 1 uM, 60 minutes): 0/0; Hepatocyte Human 60/120′ (1 uM): 120′ ([6]; 1 uM, 120 minutes): 0/0; Hepatocyte Human 60/120′ (5 uM): 60′ ([6]; 5 uM, 60 minutes): 20; Hepatocyte Human 60/120′ (5 uM): 120′ ([6]; 5 uM, 120 minutes): 0; Hepatocyte Rat 60/120′ (1 uM): 60′ ([7]; 1 uM, 60 minutes): 0/0; Hepatocyte Rat 60/120′ (1 uM): 120′ ([7]; 1 uM, 120 minutes): 0/0; Hepatocyte Rat 60/120′ (5 uM): 60′ ([7]; 5 uM, 60 minutes, unit assumed): 39%; Hepatocyte Rat 60/120′ (5 uM): 120′ ([7]; 5 uM, 120 minutes, unit assumed): 24%
COc1cc2c(cc1C(N)=O)CC[C@@H]1[C@@H]2CC[C@@]2(C)[C@H]1CCC21OCCO1 [ENMD-1565, 17-(1,3-dioxolane)-2-methoxyestra-1,3,5(10)-triene-3 carboxamide]	1.91 ± 0.36	1.21 ± 0.47	0.91	1.27 ± 0.44	4657	1379	60	97.8	–
COc1cc2c(cc1C(N)=O)CC[C@@H]1[C@@H]2CC[C@]2(C)[C@@H](OC)CC[C@@H]12 [ENMD-1756, 2,17β-(bismethoxy)estra-1,3,5(10)-triene-3-carboxamide]	1.14 ± 0.45	0.89 ± 0.21	0.62	0.71 ± 0.09	1442	665	30	53.4	–
